Assay results published in patent US20220105150A1, “AMPHIPATHIC ALPHA-HELICAL ANTIMICROBIAL PEPTIDES TREAT INFECTIONS BY GRAM-NEGATIVE PATHOGENS” (priority 2019, published 2022).
In brackets after ≈: the same amount, converted by molar mass.

What was measured:
[1] = test system: Acinetobacter baumannii strains resistant to Polymyxin B and Colistin; conditions: strains resistant to Polymyxin B and Colistin, 24 h
Description: (§1) The coupling procedure used 5 equivalents of Fmoc-D-amino acid or Fmoc-L-amino acid and HCTU (O-(1H-6-chlorobenzotriazole-1-yl)-1,1,3,3-tetramethyluronium hexafluorophosphate) and 6-Cl-HOBt (1-hydroxy-6-chloro-benztriazole) at 4.5 equivalents in DMF (Fisher Scientific, Denver, Colo.) and N-diisopropylethylamine (DIPEA) 10 equivalents (Oakwood Products, Inc., Estill, S.C.) in N-methyl-2-pyrrolidinone (NMP) (Fisher Scientific, Denver, Colo.) with the first and second couplings at room temperature for 30 min each. The deprotection procedure (removal of Fmoc protecting group) was carried out by treatment of the resin with 0.1 M HOBt (1-hydroxybenzotriazole) in DMF with 20% piperidine for 30 min. […] The resin was removed by filtration and peptide was precipitated with ice-cooled ethyl ether on ice for 15 min. Ether was decanted, the peptide was washed twice with ether and redissolved in acetonitrile/water (1:1, with 0.2% TFA) and the solution lyophilized to obtain the crude peptide. • Analytical and Preparative Purification by Reversed-Phase Chromatography: Analytical RP-HPLC: Column, Luna C18 (2), 250×4.6 mm I.D., 5 μm particle size, 100 Å pore size from Phenomenex (Torrance, Calif.). Run conditions: linear AB gradient (1% acetonitrile/min, starting from 2% acetonitrile) at a flow-rate of 1 ml/min, where eluent A is 0.2% aq. TFA and eluent B is 0.18% TFA in acetonitrile; temperature, 30° C. Preparative RP-HPLC: Peptides were dissolved in 0.2% aq. TFA containing 2% acetonitrile to a final concentration of 10 mg/ml. Following filtration through a 0.45 μm Millipore filter and subsequently through a 0.22 μm filter, the peptide solutions were loaded onto the column via multiple 20-ml injections into a 20-ml injection loop at a flow-rate of 10 ml/min. Column, Luna C18 (2), 250×30 mm I.D., 5 um particle size, 100 Å pore size from Phenomenex. Run conditions: 2% acetonitrile/min gradient up to an acetonitrile concentration 10% below that required to elute the peptide during analytical RP-HPLC, then shallow gradient elution (0.05% or 0.1% acetonitrile/min depending on the complexity of impurities near the product of interest on the analytical run of the crude peptide) at a flow-rate of 10 ml/min (same eluents as shown above for analytical RP-HPLC); at room temperature. • Temperature Profiling of Peptides on Reversed-phase HPLC to Measure Dimerization and Oligomerization: Purified peptides were analyzed on an Agilent 1200 series liquid chromatograph for temperature profiling using a Zorbax 300 SB-C8 column (150 mm×2.1 mm I.D.; 5 μm particle size, 300 Å pore size) from Agilent Technologies. […] Temperature profiling was carried out on peptide mixtures run at each temperature in 2° C. increments from 5° C. to 41° C. and 10° C. increments from 5° C. to 75° C. Twenty minutes was allowed between runs for temperature equilibration. • Characterization of Helical Structure: The mean residue molar ellipticities of peptides were determined by circular dichroism (CD) spectroscopy, using a Jasco J-815 spectropolarimeter (Jasco Inc. Easton, Md., USA) at 5° C. under KP buffer (50 mM NaH2PO4/Na2HPO4/100 mM KCl, pH 7.0) as well as in the presence of an α-helix inducing solvent, 2,2,2-trifluoroethanol, TFE, (50 mM NaH2PO4/Na2HPO4/100 mM KCl, pH 7.0 buffer/50% TFE). A 10-fold dilution of an approximately 500 μM stock solution of the peptide analogs was loaded into a 0.1 cm quartz cell and its ellipticity scanned from 195 to 250 nm.

[2] = test system: Acinetobacter baumannii isolates resistant to classical antibiotics; type: cell-based; conditions: isolates resistant to classical antibiotics
Description: Thus, shortening the number of carbon atoms between the side-chain amino group and the α-carbon atom from four (Lys) to one (diaminopropionic acid) had very little effect on antibacterial activity (Table 2). We also determined the antibacterial activity of our five AMPs against 20 additional Acinetobacter baumannii isolates from four continents, 12 different countries and 17 different cities that were resistant to 18 different antibiotics. […] Thus, it is very clear that changing the type of positively-charged residue on the polar face of these AMPs had very little effect on the antibacterial activities.

[3] = test system: human red blood cells; assay: Hemolytic activity on human red blood cells
Procedure: For comparison, the inventors also determined the hemolytic activity after 18 hours at 37° C. Hemolysis can be determined with red blood cells (RBC) from various species including human red blood cells (hRBC).
as §1

[4] = biological target: the molecule itself; assay: RP-HPLC temperature profiling (self-association)

Row | MIC MB9955 [1] | Molecule | MIC MB9941 [1] | MIC MB9949 [1] | MIC MB9951 [1] | MIC MB9952 [1] | MIC MB9953 [1] | MIC MB9963 [1] | MIC 101887 [2] | MIC 961997 [2] | MIC 963618 [2] | MIC 964304 [2] | MIC 977751 [2] | MIC 981653 [2] | MIC 1002956 [2] | MIC 1007660 [2] | MIC 1010282 [2] | MIC 1035166 [2] | HC50 Fold Improvement [3] | HC50 ([3]; red cells of human, 18 h) | binding result [4]
1 | 0.7 µM (≈ 1.88 µg/mL) | CC(=O)N[C@H](CCCCN)C(=O)N[C@H](CC(C)C)C(=O)N[C@@H](CCN)C(=O)N[C@H](CO)C(=O)N[C@H](CC(C)C)C(=O)N[C@H](CC(C)C)C(=O)N[C@@H](CCN)C(=O)N[C@@H](C(=O)N[C@H](CC(C)C)C(=O)N[C@H](CO)C(=O)N[C@@H](CCN)C(=O)N[C@H](C)C(=O)N[C@H](CCCCN)C(=O)N[C@H](C)C(=O)N[C@H](C)C(=O)N[C@H](CCCCN)C(=O)N[C@H](CC(C)C)C(=O)N[C@@H](CCN)C(=O)N[C@@H](C(=O)N[C@H](CC(C)C)C(=O)N[C@H](CC(C)C)C(=O)N[C@@H](CCN)C(=O)N[C@H](C)C(=O)N[C@H](CC(C)C)C(=O)N[C@H](CO)C(=O)N[C@H](CO)C(N)=O)[C@H](C)O)[C@H](C)O [D102(Lys^1Ser^26-5Dab-1), Ac-KL(L-Dab)SLL(L-Dab)TLS(L-Dab)AKAAKL(L-Dab)TLL(L-Dab)ALS(Ser)-amide] | 0.4 µM (≈ 1.07 µg/mL) | 0.7 µM (≈ 1.88 µg/mL) | 0.7 µM (≈ 1.88 µg/mL) | 0.7 µM (≈ 1.88 µg/mL) | 1.4 µM (≈ 3.76 µg/mL) | 0.7 µM (≈ 1.88 µg/mL) | 0.7 µM (≈ 1.88 µg/mL) | 1.5 µM (≈ 4.03 µg/mL) | 0.4 µM (≈ 1.07 µg/mL) | 0.7 µM (≈ 1.88 µg/mL) | 0.7 µM (≈ 1.88 µg/mL) | 0.4 µM (≈ 1.07 µg/mL) | 0.4 µM (≈ 1.07 µg/mL) | 0.4 µM (≈ 1.07 µg/mL) | 0.7 µM (≈ 1.88 µg/mL) | 0.7 µM (≈ 1.88 µg/mL) | >177 | – | –
2 | – | CC(=O)N[C@H](CCCCN)C(=O)N[C@H](CC(C)C)C(=O)N[C@@H](CN)C(=O)N[C@H](CO)C(=O)N[C@H](CC(C)C)C(=O)N[C@H](CC(C)C)C(=O)N[C@@H](CN)C(=O)N[C@@H](C(=O)N[C@H](CC(C)C)C(=O)N[C@H](CO)C(=O)N[C@@H](CN)C(=O)N[C@H](C)C(=O)N[C@H](CCCCN)C(=O)N[C@H](C)C(=O)N[C@H](C)C(=O)N[C@H](CCCCN)C(=O)N[C@H](CC(C)C)C(=O)N[C@@H](CN)C(=O)N[C@@H](C(=O)N[C@H](CC(C)C)C(=O)N[C@H](CC(C)C)C(=O)N[C@@H](CN)C(=O)N[C@H](C)C(=O)N[C@H](CC(C)C)C(=O)N[C@H](CO)C(=O)N[C@@H](CN)C(N)=O)[C@H](C)O)[C@H](C)O [D105(Lys^1-6Dap-1), Ac-KL(L-Dap)SLL(L-Dap)TLS(L-Dap)AKAAKL(L-Dap)TLL(L-Dap)ALS(L-Dap)-amide] | 0.8 µM (≈ 2.09 µg/mL) | 0.8 µM (≈ 2.09 µg/mL) | 3.0 µM (≈ 7.84 µg/mL) | 0.8 µM (≈ 2.09 µg/mL) | 3.0 µM (≈ 7.84 µg/mL) | 1.5 µM (≈ 3.92 µg/mL) | 0.8 µM (≈ 2.09 µg/mL) | 1.5 µM (≈ 3.92 µg/mL) | 0.8 µM (≈ 2.09 µg/mL) | 1.5 µM (≈ 3.92 µg/mL) | 0.8 µM (≈ 2.09 µg/mL) | 0.8 µM (≈ 2.09 µg/mL) | 0.8 µM (≈ 2.09 µg/mL) | 0.8 µM (≈ 2.09 µg/mL) | 0.8 µM (≈ 2.09 µg/mL) | 0.8 µM (≈ 2.09 µg/mL) | >287 | >1148 µM | –
3 | – | Ac-ELEKGGLEGEKGGKELEK-NH2 [random coil control peptide (RC)] | – | – | – | – | – | – | – | – | – | – | – | – | – | – | – | – | – | – | no binding
